Test results taken from patent publication US7189758B2, “Glucocorticoid mimetics, methods of making them, pharmaceutical formulations, and uses thereof” (Boehringer Ingelheim Pharmaceuticals, Inc., priority 2002, dated 2007).

Columns and labels:
[1] = target: T1, human glucocorticoid receptor (GR) complex (Homo sapiens, UniProt P04150); test: Glucocorticoid receptor competitive binding assay (fluorescence polarization, TAMRA-labeled dexamethasone probe); settings: result in words only; IC50 values not given
T1 construct: made in house; host or cells: insect cells (baculovirus expression), used as crude lysate
T1 sequence (P04150 1-777): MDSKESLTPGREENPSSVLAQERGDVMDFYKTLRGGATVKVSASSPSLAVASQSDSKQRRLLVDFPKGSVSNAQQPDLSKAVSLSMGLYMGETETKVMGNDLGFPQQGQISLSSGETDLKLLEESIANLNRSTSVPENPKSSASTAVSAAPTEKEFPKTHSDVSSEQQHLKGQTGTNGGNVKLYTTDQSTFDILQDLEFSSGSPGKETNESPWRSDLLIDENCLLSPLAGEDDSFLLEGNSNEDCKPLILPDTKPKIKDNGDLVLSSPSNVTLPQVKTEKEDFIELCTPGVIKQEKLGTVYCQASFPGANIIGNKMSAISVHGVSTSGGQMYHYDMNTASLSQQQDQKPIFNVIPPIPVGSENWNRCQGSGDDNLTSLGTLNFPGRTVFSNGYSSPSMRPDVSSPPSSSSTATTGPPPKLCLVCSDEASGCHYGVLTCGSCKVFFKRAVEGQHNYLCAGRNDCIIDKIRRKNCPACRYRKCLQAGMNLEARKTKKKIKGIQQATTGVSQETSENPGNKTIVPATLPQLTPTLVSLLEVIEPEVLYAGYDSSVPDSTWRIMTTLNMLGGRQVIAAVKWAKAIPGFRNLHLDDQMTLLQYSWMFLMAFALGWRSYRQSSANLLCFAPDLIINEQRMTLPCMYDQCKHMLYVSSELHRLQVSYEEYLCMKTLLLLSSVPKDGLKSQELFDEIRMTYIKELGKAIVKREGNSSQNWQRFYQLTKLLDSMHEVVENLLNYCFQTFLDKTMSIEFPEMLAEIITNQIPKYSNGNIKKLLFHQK
Protocol: Compounds of the invention were evaluated for binding to the steroid receptor by a fluorescence polarization competitive binding assay.
A. Glucocorticoid Receptor Competitive Binding Assay
Step 1. Characterization of the Fluorescent Probe
The wavelengths for maximum excitation and emission of the fluorescent probe should first be measured. An example of such a probe is rhodamine (TAMRA)-labeled dexamethasone.
The affinity of the probe for the steroid receptor was then determined in a titration experiment. The fluorescence polarization value of the probe in assay buffer was measured on an SLM-8100 fluorometer using the excitation and emission maximum values described above. Aliquots of expression vector lysate were added and fluorescence polarization was measured after each addition until no further change in polarization value was observed. Non-linear least squares regression analysis was used to calculate the dissociation constant of the probe from the polarization values obtained for lysate binding to the probe.
Step 2. Screening for Inhibitors of Probe Binding
This assay uses fluorescence polarization (FP) to quantitate the ability of test compounds to compete with tetramethyl rhodamine (TAMRA)-labeled dexamethasone for binding to a human glucocorticoid receptor (GR) complex prepared from an insect expression system. The assay buffer was: 10 mM TES, 50 mM KCl, 20 mM Na2MoO4.2H2O, 1.5 mM EDTA, 0.04% w/v CHAPS, 10% v/v glycerol, 1 mM dithiothreitol, pH 7.4. Test compounds were dissolved to 1 mM in neat DMSO and then further diluted to 10× assay concentration in assay buffer supplemented with 10% v/v DMSO. Test compounds were serially diluted at 10× assay concentrations in 10% DMSO-containing buffer in 96-well polypropylene plates. Binding reaction mixtures were prepared in 96-well black Dynex microtiter plates by sequential addition of the following assay components to each well: 15 μL of 10× test compound solution, 85 μL of GR-containing baculovirus lysate diluted 1:170 in assay buffer, and 50 μL of 15 nM TAMRA-labeled dexamethasone. Positive controls were reaction mixtures containing no test compound; negative controls (blanks) were reaction mixtures containing 0.7 μM to 2 μM dexamethasone. […] IC50 values were determined by iterative non-linear curve fitting of the FP signal data to a 4-parameter logistic equation.

glucocorticoid receptor = settings: in one or more of the above assays; assay not specified
Protocol: Evaluation of agonist or antagonist activity of compounds binding to the glucocorticoid receptor may be determined by any of the assays.
3. Modulation of Tyrosine Aminotransferase (TAT) Induction in Rat Hepatoma Cells
Testing of compounds for agonist or antagonist activity in induction of tyrosine aminotransferase (TAT) in rat hepatoma cells.
H4-II-E-C3 cells were incubated overnight in 96 well plates (20,000 cells/100 μL/well) in MEM medium containing 10% heat inactivated FBS and 1% nonessential amino acids. On the next day, cells were stimulated with the indicated concentrations of dexamethasone or test compound (dissolved in DMSO, final DMSO concentration 0.2%) for 18 hours. Control cells were treated with 0.2% DMSO. After 18 hours, the cells were lysed in a buffer containing 0.1% Triton X-100 and the TAT activity was measured in a photometric assay using tyrosine and alpha-ketoglutarate as substrates.
For measuring antagonist activity, the hepatoma cells were pre-stimulated by addition of dexamethasone (concentration ranges from 3×10^−9 M to 3×10^−8 M) shortly before the test compound was applied to the cells.
4. Modulation of MMTV-Luc Induction in HeLa Cells
Testing of compounds for agonist or antagonist activity in stimulation of MMTV-(mouse mammary tumor virus) promoter in HeLa cells. […]

Row | Compound | activity in the GR binding assay [1] | activity as antagonists of the glucocorticoid receptor function (glucocorticoid receptor)
1 | CC(C)(CC(O)(Cc1ccccc1)C(=O)Nc1ccc2c(c1)COC2=O)c1ccccc1 (stereo not drawn) [2-Benzyl-2-hydroxy-4-methyl-4-phenylpentanoic acid (1-oxo-1,3-dihydroisobenzofuran-5-yl)amide] | potent activity | activity as antagonists
2 | CC(C)(CC(O)(CC1CCCCC1)C(=O)Nc1ccc2c(c1)COC2=O)c1ccccc1 (stereo not drawn) [2-Cyclohexylmethyl-2-hydroxy-4-methyl-4-phenylpentanoic acid (1-oxo-1,3-dihydroisobenzofuran-5-yl)amide] | potent activity | activity as antagonists
3 | COc1ccc(F)cc1C(C)(C)CC(O)(Cc1ccccc1Br)C(=O)Nc1ccc2c(c1)COC2=O (stereo not drawn) [2-(2-Bromobenzyl)-4-(5-fluoro-2-methoxyphenyl)-2-hydroxy-4-methylpentanoic acid (1-oxo-1,3-dihydroisobenzofuran-5-yl)amide] | potent activity | 
4 | CC(C)(CC(O)(Cc1ccc(F)cc1)C(=O)Nc1ccc2c(c1)COC2=O)c1cc(F)ccc1O (stereo not drawn) [2-(4-Fluorobenzyl)-4-(5-fluoro-2-hydroxyphenyl)-2-hydroxy-4-methylpentanoic acid (1-oxo-1,3-dihydroisobenzofuran-5-yl)amide] | potent activity | 
